Columns and labels:
Experiment in all cases: normalised response (% of control), CellTiter-Glo; higher = more viable cells (100 = DMSO, 0 = benzethonium chloride kill control)
Details in all cases: incubation time: 72 h
[1] = test system: CAL-51
Summary of the method: (§1)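 Each entry is the normalised signal at a single concentration within a series. The series comprised 5 concentrations in 10-fold steps over a compound-specific 10,000-fold range, placed in 384-well plates into which breast cancer cell lines were seeded as 20 µl suspension and incubated 72 h. CellTox Green (485/520 nm) fluorescence and then CellTiter-Glo luminescence were read, with signals normalised per plate to 0.1 % DMSO (100) and a positive kill control (0).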

[2] = test system: HCC1937
Summary of the method: as §1

[3] = test system: SK-BR-3
Summary of the method: as §1

[4] = test system: DU-4475
Summary of the method: as §1

[5] = test system: HCC1143
Summary of the method: as §1

[6] = test system: MDA-MB-231
Summary of the method: as §1

[7] = test system: HDQ-P1
Summary of the method: as §1

[8] = test system: MDA-MB-468
Summary of the method: as §1

[9] = test system: CAL-85-1
Summary of the method: as §1

[10] = test system: MCF-10A
Summary of the method: as §1

[11] = test system: BT-549
Summary of the method: as §1

[12] = test system: MDA-MB-453
Summary of the method: as §1

[13] = test system: CAL-148
Summary of the method: as §1

[14] = test system: CAL-120
Summary of the method: as §1

[15] = test system: Hs578T
Summary of the method: as §1

[16] = test system: HCC1599
Summary of the method: as §1

[17] = test system: MFM-223
Summary of the method: as §1

[18] = test system: BT-474
Summary of the method: as §1

[19] = test system: MDA-MB-436
Summary of the method: as §1

Compound | normalised response [1] | normalised response [2] | normalised response [3] | normalised response [4] | normalised response [5] | normalised response [6] | normalised response [7] | normalised response [8] | normalised response [9] | normalised response [10] | normalised response [11] | normalised response [12] | normalised response [13] | normalised response [14] | normalised response [15] | normalised response [16] | normalised response [17] | normalised response [18] | normalised response [19]
CN1CCC(COc2cnc(-c3cccc(Cn4nc(-c5cccc(C#N)c5)ccc4=O)c3)nc2)CC1 (0.1 nM) | 82.4% | 94.5% | 84.6% | 93.1% | 94.6% | 98.5% | 99.1% | 96.9% | 92.8% | 89.1% | 95.1% | 105% | 103% | 96.1% | 96.4% | 92.2% | 94.2% | 98.2% | 81.1%
CN(C)C/C=C/C(=O)Nc1cc2c(Nc3ccc(F)c(Cl)c3)ncnc2cc1O[C@H]1CCOC1 [Afatinib] (0.1 nM) | 75% | 96.6% | 104% | 104% | 93.2% | 103% | 108% | 100% | 116% | 91.2% | 97.3% | 111% | 103% | 93.7% | 99.6% | 99% | 96.2% | 94.9% | 85.8%
COc1cc(Nc2ncc3c(n2)-c2ccc(Cl)cc2C(c2c(F)cccc2OC)=NC3)ccc1C(=O)O [Alisertib] (1 nM) | 116% | 88.4% | 94.2% | 97% | 91.6% | 93.3% | 94.7% | 95.9% | 91.9% | 84% | 95.6% | 95.9% | 89.3% | 96.7% | 95.6% | 90.2% | 92.9% | 98.9% | 99%
COc1cc(Nc2ncc3c(n2)-c2ccc(Cl)cc2C(c2c(F)cccc2OC)=NC3)ccc1C(=O)O [Alisertib] (10 nM) | 86.4% | 95.9% | 70.4% | 98.2% | 93.9% | 95.3% | 97.1% | 87.7% | 94.4% | 93% | 96% | 88.3% | 91.9% | 96.1% | 97% | 102% | 88.6% | 93.4% | 89.5%
CN1CC[C@H](c2c(O)cc(O)c3c(=O)cc(-c4ccccc4Cl)oc23)[C@H](O)C1 [Alvocidib] (10 nM) | 125% | 101% | 106% | 104% | 103% | 101% | 99.2% | 99.9% | 103% | 110% | 102% | 112% | 104% | 92.4% | 102% | 103% | 106% | 98.7% | 106%
Nc1nc(Cl)nc2c1ncn2[C@H]1C[C@H](O)[C@@H](CO)O1 [Cladribine] (1 nM) | 94.2% | 101% |  | 106% | 104% | 100% | 97.8% | 102% | 102% | 104% | 97.2% | 113% | 103% | 97.5% | 105% | 102% | 105% | 99.3% | 102%
Nc1ccn([C@@H]2O[C@H](CO)[C@@H](O)[C@@H]2O)c(=O)n1 [Cytarabine] (10 nM) | 80.4% | 96.5% |  | 99.4% | 99.3% | 99.2% | 107% | 93.8% | 99% | 112% | 96.8% | 109% | 102% | 96.4% | 114% | 90.2% | 107% | 97.6% | 105%
Cc1c2oc3c(C)ccc(C(=O)N[C@@H]4C(=O)N[C@H](C(C)C)C(=O)N5CCC[C@H]5C(=O)N(C)CC(=O)N(C)[C@@H](C(C)C)C(=O)O[C@@H]4C)c3nc-2c(C(=O)N[C@@H]2C(=O)N[C@H](C(C)C)C(=O)N3CCC[C@H]3C(=O)N(C)CC(=O)N(C)[C@@H](C(C)C)C(=O)O[C@@H]2C)c(N)c1=O [Dactinomycin] (1 nM) | 99.9% | 79.9% |  | 97% | 80.8% | 97.7% | 71.4% | 60.3% | 90.8% | 77.8% | 71.9% | 94% | 81.8% | 90.3% | 105% | 102% | 105% | 79.4% | 87%
COc1cccc2c1C(=O)c1c(O)c3c(c(O)c1C2=O)C[C@@](O)(C(=O)CO)C[C@@H]3O[C@H]1C[C@H](N)[C@H](O)[C@H](C)O1 [Doxorubicin] (1 nM) | 107% | 98.6% |  | 108% | 99.1% | 99.5% | 101% | 104% | 103% | 110% | 94.2% | 113% | 95.7% | 93.6% | 100% | 120% | 105% | 101% | 107%
Cc1ccc(F)c(NC(=O)Nc2ccc(-c3cccc4[nH]nc(N)c34)cc2)c1 [Linifanib] (1 nM) | 100% | 101% |  | 111% | 110% | 106% | 104% | 106% | 103% | 109% | 104% | 113% | 114% | 102% | 98.9% | 112% | 112% | 106% | 101%
CC(=O)O[C@]1(C(C)=O)CC[C@H]2[C@@H]3C=C(C)C4=CC(=O)CC[C@]4(C)[C@H]3CC[C@@]21C [Megestrol acetate] (1 nM) | 120% | 95.4% | 99.2% | 97.5% | 95.2% | 98.5% | 99.8% | 88.8% | 98.9% | 101% | 97.7% | 131% | 99.9% | 94.9% | 96.8% | 96.5% | 98% | 95.9% | 101%
CC(=O)O[C@]1(C(C)=O)CC[C@H]2[C@@H]3C=C(C)C4=CC(=O)CC[C@]4(C)[C@H]3CC[C@@]21C [Megestrol acetate] (10 nM) | 83.4% | 95% | 102% | 96.6% | 104% | 101% | 104% | 107% | 98% | 107% | 100% | 103% | 86.9% | 98.1% | 96.9% | 105% | 97.1% | 102% | 96.3%
S=c1[nH]cnc2nc[nH]c12 [Mercaptopurine] (10 nM) | 119% | 93.1% | 109% | 98.5% | 106% | 96% | 97.1% | 94.3% | 94.5% | 103% | 97.7% | 93% | 83.4% | 98.5% | 100% | 89.8% | 97.2% | 98.6% | 98%
Clc1ccc(C(c2ccccc2Cl)C(Cl)Cl)cc1 (stereo not given) [Mitotane] (10 nM) | 104% | 99% | 98.1% | 103% | 101% | 99.8% | 97% | 94% | 106% | 96.4% | 104% | 109% | 91.2% | 101% | 103% | 132% | 99% | 93.1% | 89.8%
CCN1CCN(c2ccc(Nc3cc(N(C)C(=O)Nc4c(Cl)c(OC)cc(OC)c4Cl)ncn3)cc2)CC1 [NVP-BGJ398] (0.1 nM) | 74.7% | 95.6% | 99% | 101% | 98.2% | 95.4% | 101% | 88.2% | 93.4% | 101% | 99.8% | 84.1% | 97.7% | 92% | 97.3% | 98.7% | 96.6% | 96.7% | 97.6%
CCN1CCN(c2ccc(Nc3cc(N(C)C(=O)Nc4c(Cl)c(OC)cc(OC)c4Cl)ncn3)cc2)CC1 [NVP-BGJ398] (1 nM) | 118% | 104% | 108% | 99% | 98.8% | 95.8% | 101% | 100% | 98.3% | 108% | 96% | 97.7% | 96.1% | 97.2% | 103% | 88.4% | 97.1% | 94.9% | 97.7%
COc1cccc2cc(-c3nc([C@H]4CC[C@H](C(=O)O)CC4)n4ncnc(N)c34)[nH]c12 [OSI-027] (10 nM) | 82.7% | 94.2% | 77.3% | 97.1% | 96.6% | 96% | 100% | 94.6% | 90.7% | 98.8% | 93.8% | 94.3% | 88.7% | 101% | 97.7% | 92.7% | 93% | 101% | 93.8%
OC[C@H]1O[C@@H](n2cnc3c2N=CNC[C@H]3O)C[C@@H]1O [Pentostatin] (10 nM) | 78% | 98.2% | 101% | 104% | 98.9% | 99.2% | 100% | 94.4% | 102% | 99.9% | 91.2% | 103% | 102% | 98% | 106% | 104% | 101% | 98% | 97.3%
N#CC[C@H](C1CCCC1)n1cc(-c2ncnc3[nH]ccc23)cn1 [Ruxolitinib] (10 nM) | 121% | 89.3% | 81.5% | 97.4% | 100% | 95.2% | 94% | 100% | 91.2% | 88.8% | 98.3% | 83.8% | 86% | 104% | 96.2% | 76.5% | 92.6% | 97% | 92.2%
C=CC[C@@H]1/C=C(\C)C[C@H](C)C[C@H](OC)[C@H]2O[C@@](O)(C(=O)C(=O)N3CCCC[C@H]3C(=O)O[C@H](/C(C)=C/[C@@H]3CC[C@@H](O)[C@H](OC)C3)[C@H](C)[C@@H](O)CC1=O)[C@H](C)C[C@@H]2OC [Tacrolimus] (10 nM) | 110% | 100% | 119% | 105% | 103% | 100% | 100% | 97.6% | 99% | 103% | 101% | 109% | 97.4% | 97.7% | 103% | 102% | 98.8% | 105% | 106%
